Measurements reported in US20060241037A1, “Compositions comprising trefoil factor family peptides and/or mucoadhesives and proton pump ihhibitor prodrugs” (ALLERGAN INC., priority 2003, published 2006).

Tests used:
[1] = Pharmacokinetic study in dogs (oral / intravenous), systemic half-life by LC-MS/MS; assay type: in vivo, dogs (beagle); set-up: key to T1/2 Prodrug: NC: plasma concentration of prodrug was too low to calculate half-life, or undetected; settings: for half-life: beagle, blood, po, read-out: T1/2 PPI (converted); for half-life / T1/2 Prodrug / T1/2 PPI: Dog, SD in parenthesis; for half-life / T1/2 PPI: systemic half-life of the proton pump inhibitor; for t1/2: systemic half-life of parent PPI in dogs after oral administration; for T1/2 Prodrug: systemic half-life of intact prodrug
Protocol: (§1) Blood concentrations of the compounds omeprazole, lansoprazole, pantoprazole, rabeprazole, and test compounds were quantified using an achiral liquid chromatography tandem mass spectrometry method (LC-MS/MS). Systemic pharmacokinetic parameters were determined for omeprazole or lansoprazole using non-compartmental analysis in Watson® version 6.3, available from InnaPhase Corporation, Philadelphia, Pa.

[2] = Pharmacokinetic study in rats (oral / intravenous), systemic half-life by LC-MS/MS; assay type: in vivo, rats (Sprague-Dawley); set-up: key to T1/2 Prodrug: NC: plasma concentration of prodrug was too low to calculate half-life, or undetected; settings: Rat, SD in parenthesis; for T1/2 Prodrug: systemic half-life of intact prodrug; for T1/2 PPI: systemic half-life of the proton pump inhibitor
Protocol: as §1

Caco-2 cells = assay: Membrane permeability (Papp) across Caco-2 cell monolayer, apical to basolateral; assay type: in vitro ADME; settings: Caco-2, apical to basolateral, 10 μM, 37° C.
Protocol: Determination of membrane permeability in all examples described herein was accomplished by the following procedure. This procedure is also used to determine whether a given prodrug falls within the scope of those claims given herein which relate to membrane permeability.
Caco-2 cells were seeded on Costar™ 12 mm diameter, 0.4 μm pore size transwell filters, and were cultured at 37° C., 5% CO2 in a humidified tissue culture chamber.
DMEM was equilibrated as a transport buffer in 37° C. water bath an hour before experiment. The cells were then equilibrated in transport buffer for 1 hr at 37° C.
Dosing solution (10 μM) was prepared by adding a 20 μL aliquot of a 10 mM stock solution of the prodrug to 20 mL of transport buffer.
Transport across Caco-2 cell monolayer was measured at 37° C., in the apical to basolateral direction (n=3).
Transport buffer was removed from both apical and basolateral compartment of filters. Dosing solution (0.2 mL) was added to the apical compartment of the cell layers on transwell filters, and 0.8 ml fresh pre-warmed transport buffer was added to basolateral compartment. Timing was started for transport, and at 5, 20, and 60 min after transport started, sample fluid (400 μL) was collected from the basolateral compartment. Fresh transport buffer (400 μL) was added back to the basolateral compartment, and the fluid was thoroughly mixed.
The apparent permeability coefficient (Papp, cm/sec), otherwise known herein as the membrane permeability, is determined from the following relationship: Papp=J/(ACo) where J (pmol/min) is the transport rate, meaning the rate of prodrug movement through the cell layer, A (cm^2) is the filter surface area, and Co (μM) is the initial dosing concentration.
Lucifer yellow (LY) was used as a paracellular permeability reference standard to determine integrity of cell layers used in the experiments. […] Fluorescence level in basolateral fluid sampled at 5, 20, and 60 min post dose was determined using Fluostar Galaxy (BMG Labtechnologies, Durham, N.C.) at excitation/emission wavelengths of 485/520 nm. […]

Row | SMILES | T1/2 Prodrug [1] | T1/2 PPI [1] | T1/2 Prodrug [2] | T1/2 PPI ([2]; in h) | also measured
1 | Cc1c(OCC(F)(F)F)ccnc1C[S+]([O-])c1nc2ccccc2[nH]1 (stereo not shown) [Lansoprazole, reference compound] |  |  |  |  | half-life [1]: 34.4 min; t1/2 [1]: 34.2 min
2 | COCCCOc1ccnc(C[S+]([O-])c2nc3ccccc3n2S(=O)(=O)c2c(C)cc(OCC(=O)O)cc2C)c1C (stereo not shown) [Compound 32] | 31.6 min | 91.2 min |  |  | 
3 | Cc1cc(OCC(=O)O)cc(C(C)C)c1S(=O)(=O)n1c([S+]([O-])Cc2nccc(OCC(F)(F)F)c2C)nc2ccccc21 (stereo not shown) [Compound 17] | 89.4 min | 67.8 min |  |  | 
4 | Cc1c(OCC(F)(F)F)ccnc1C[S+]([O-])c1nc2ccccc2n1S(=O)(=O)c1ccc(CC(=O)O)c(CC(=O)O)c1 (stereo not shown) [Compound 12] | NC | 55.9 min |  |  | 
5 | COCCCOc1ccnc(C[S+]([O-])c2nc3ccccc3n2S(=O)(=O)c2ccc(C(=O)O)cc2)c1C (stereo not shown) [Compound 33] | 44.8 min | 53.6 min |  |  | 
6 | Cc1ccc(S(=O)(=O)n2c([S+]([O-])Cc3nccc(OCC(F)(F)F)c3C)nc3ccccc32)cc1CCC(=O)O (stereo not shown) [Compound 19] | 110 min | 29 min |  |  | 
7 | COc1ccc(S(=O)(=O)n2c([S+]([O-])Cc3nccc(OCC(F)(F)F)c3C)nc3ccccc32)cc1CCC(=O)O (stereo not shown) [Compound 38] |  |  |  | 1.43 (0.42) | T1/2 Prodrug ([2]; in h): 1.04 (0.35)
8 | Cc1c(OCC(F)(F)F)ccnc1C[S+]([O-])c1nc2ccccc2n1S(=O)(=O)c1ccc(CC(=O)O)cc1C(C)C (stereo not shown) [Compound 15] | NC | 55.4 min |  |  | 
9 | Cc1cc(OCC(=O)O)cc(C)c1S(=O)(=O)n1c([S+]([O-])Cc2nccc(OCC(F)(F)F)c2C)nc2ccccc21 (stereo not shown) [Compound 34] |  |  | NC | 1.11 (0.71) | 
10 | Cc1cc(C(=O)O)ccc1S(=O)(=O)n1c([S+]([O-])Cc2nccc(OCC(F)(F)F)c2C)nc2ccccc21 (stereo not shown) [Compound 37] |  |  | NC | 2.19 (0.80) | 
11 | COc1ccc(C(=O)O)cc1S(=O)(=O)n1c([S+]([O-])Cc2nccc(OCC(F)(F)F)c2C)nc2ccccc21 (stereo not shown) [Compound 14] | 7.08 min | 83.4 min |  | 0.536 (0.217) | 
12 | Cc1ccc(C(=O)O)cc1S(=O)(=O)n1c([S+]([O-])Cc2nccc(OCC(F)(F)F)c2C)nc2ccccc21 (stereo not shown) [Compound 13] | 7.32 min | 106 min | NC | 2.35 (1.22) | 
13 | COCCCOc1ccnc(C[S+]([O-])c2nc3ccccc3n2S(=O)(=O)c2cc(C(=O)O)ccc2C)c1C (stereo not shown) [Compound 31] | 50.6 min | 51.3 min |  |  | 
14 | COc1ccc2[nH]c([S+]([O-])Cc3ncc(C)c(OC)c3C)nc2c1 (stereo not shown) [Omeprazole, reference compound] |  |  |  |  | half-life [1]: 41.8 min; t1/2 [1]: 42 min
15 | COc1ccc(S(=O)(=O)n2c([S+]([O-])Cc3nccc(OCC(F)(F)F)c3C)nc3ccccc32)cc1C(=O)O (stereo not shown) [Compound 8] | NC | 64.8 min | NC | 1.80 (1.20) | t1/2 [1]: 66 min; Permeability (Caco-2 cells): 0.23 ×10⁻⁶ cm/s
16 | COCCCOc1ccnc(C[S+]([O-])c2nc3ccccc3n2S(=O)(=O)c2cccc(C(=O)O)c2)c1C (stereo not shown) [Compound 30] | 67.2 min | 29.5 min |  |  | 

The next lines start with results.

Row | T1/2 Prodrug [1] | T1/2 PPI [1] | T1/2 Prodrug [2] | T1/2 PPI ([2]; in h) | SMILES | also measured
17 |  |  | NC | 1.84 (0.87) | Cc1c(OCC(F)(F)F)ccnc1C[S+]([O-])c1nc2ccccc2n1S(=O)(=O)c1ccc(OCC(=O)O)c(OCC(=O)O)c1 (stereo not shown) [Compound 35] | 
18 | NC | 0.873 (0.288) | NC | 0.933 (1.009) | Cc1c(OCC(F)(F)F)ccnc1C[S+]([O-])c1nc2ccccc2n1S(=O)(=O)c1ccc(OCC(C)(C)C(=O)O)cc1 (stereo not shown) [Compound 11] | 
19 |  |  | NC | 0.389 (0.085) | Cc1c(OCC(F)(F)F)ccnc1C[S+]([O-])c1nc2ccccc2n1S(=O)(=O)c1ccc(C(=O)O)cc1 (stereo not shown) [Compound 36] | 
20 | NC | 60 min | NC | 1.86 (0.74) | Cc1c(OCC(F)(F)F)ccnc1C[S+]([O-])c1nc2ccccc2n1S(=O)(=O)c1ccc(C(=O)O)c(OCC(=O)O)c1 (stereo not shown) [Compound 16] | 
21 | NC | 53.6 min | NC | 0.341 (0.151) | Cc1c(OCC(F)(F)F)ccnc1C[S+]([O-])c1nc2ccccc2n1S(=O)(=O)c1ccc(CC(=O)O)cc1 (stereo not shown) [Compound 9] | t1/2 [1]: 53.4 min; Permeability (Caco-2 cells): 0.34 ×10⁻⁶ cm/s
22 | NC | 0.989 (0.307) |  |  | Cc1c(OCC(F)(F)F)ccnc1C[S+]([O-])c1nc2ccccc2n1S(=O)(=O)c1ccc(OCC(=O)O)cc1 (stereo not shown) [Compound 10] | 
23 | 5.39 min | 54.5 min |  |  | Cc1c(OCC(F)(F)F)ccnc1C[S+]([O-])c1nc2ccccc2n1S(=O)(=O)c1ccc(C(=O)O)cc1 (stereo not shown) [Compound 18] | 
24 | 12.4 min | 53.6 min | NC | 1.93 (1.41) | Cc1c(OCC(F)(F)F)ccnc1C[S+]([O-])c1nc2ccccc2n1S(=O)(=O)c1cccc(C(=O)O)c1 (stereo not shown) [Compound 7] | t1/2 [1]: 53.4 min; Permeability (Caco-2 cells): 0.16 ×10⁻⁶ cm/s
